Here are results for 30 compounds from EP4624465A1, “COMPOUND SERVING AS DDR1 KINASE INHIBITOR, AND MEDICINE” (Nippon Shinyaku Co., Ltd., priority 2022, dated 2024).

Counter-ions that a name gives are not always drawn.

The target in this test is DDR1 kinase (Homo sapiens, UniProt Q08345). The experiment in a line: Evaluation of DDR1 kinase inhibition (LANCE Ultra TR-FRET kinase assay). The test is classed as biochemical. Further details: purchased Carna Biosciences 08-113. The settings on record: DDR1 protein 0.5 nM, LANCE Ultra ULight-poly GAT substrate, 2 hours at room temperature, duplicate; read-out: DDR-1 IC50.
Chain of DDR1 kinase (Q08345 19-876 isoform Q08345-2 limits assumed): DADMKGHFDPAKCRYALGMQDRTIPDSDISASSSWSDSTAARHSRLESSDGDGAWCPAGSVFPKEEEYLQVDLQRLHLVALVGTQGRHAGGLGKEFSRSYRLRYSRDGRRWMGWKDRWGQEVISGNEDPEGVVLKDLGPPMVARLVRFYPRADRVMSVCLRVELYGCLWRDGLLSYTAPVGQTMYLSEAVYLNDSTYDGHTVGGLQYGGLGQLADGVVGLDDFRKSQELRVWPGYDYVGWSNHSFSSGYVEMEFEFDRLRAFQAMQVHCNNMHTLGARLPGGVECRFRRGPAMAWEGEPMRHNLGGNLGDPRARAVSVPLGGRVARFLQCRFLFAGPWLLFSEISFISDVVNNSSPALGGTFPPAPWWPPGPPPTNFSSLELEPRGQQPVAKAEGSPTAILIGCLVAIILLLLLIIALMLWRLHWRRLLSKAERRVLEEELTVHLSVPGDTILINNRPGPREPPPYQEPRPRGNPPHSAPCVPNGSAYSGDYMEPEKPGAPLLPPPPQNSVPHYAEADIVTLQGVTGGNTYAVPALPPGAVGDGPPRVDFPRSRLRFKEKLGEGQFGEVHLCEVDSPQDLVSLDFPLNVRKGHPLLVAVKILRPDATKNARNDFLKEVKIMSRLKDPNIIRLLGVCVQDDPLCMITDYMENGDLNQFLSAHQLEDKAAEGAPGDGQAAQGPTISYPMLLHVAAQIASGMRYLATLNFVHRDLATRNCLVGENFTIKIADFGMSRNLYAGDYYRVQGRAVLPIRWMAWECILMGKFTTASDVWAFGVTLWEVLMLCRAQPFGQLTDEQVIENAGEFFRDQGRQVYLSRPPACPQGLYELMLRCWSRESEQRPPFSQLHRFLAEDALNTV

In the case of `Nc1cc(C(=O)N2CC(c3nn(CC(=O)NC(C4CC4)C4CC4)c4ccccc34)C2)ccn1` [Compound E-224, 2-{3-[1-(2-aminopyridine-4-carbonyl)azetidin-3-yl]-1H-indazol-1-yl}-N-(dicyclopropylmethyl)acetamide], the 50% inhibitory concentration (IC50) came to 18 nM.

As to `CN(CC(F)(F)F)C(=O)Cn1nc(C2CN(C(=O)c3ccnc(N)n3)C2)c2c(F)cc(F)cc21` [Compound E-289, 2-{3-[1-(2-aminopyrimidine-4-carbonyl)azetidin-3-yl]-4,6-difluoro-1H-indazol-1-yl)-N-methyl-N-(2,2,2-trifluoroethyl)acetamide], the IC50 was found to be 45 nM.

As for `Cc1ccc2c(c1)c(C1CN(C(=O)c3ccnc(N)n3)C1)nn2CC(=O)N(C)CC(F)(F)F` [Compound E-288, 2-{3-[1-(2-aminopyrimidine-4-carbonyl)azetidin-3-yl]-5-methyl-1H-indazol-1-yl}-N-methyl-N-(2,2,2-trifluoroethyl)acetamide], the IC50 is 14 nM.

Consider `CC1(C)COCCN1C(=O)Cn1nc(C2CN(C(=O)c3ccnc(N)c3F)C2)c2ccccc21` [Compound E-190, 2-{3-[1-(2-amino-3-fluoropyridine-4-carbonyl)azetidin-3-yl]-1H-indazol-1-yl}-1-(3,3-dimethylmorpholin-4-yl)ethan-1-one], for which the IC50 was determined as 7.5 nM.

In the case of `Nc1cc(C(=O)N2CC(c3nn(CC(=O)N4CCOc5ccccc54)c4cc(F)cc(F)c34)C2)ccn1` [Compound E-159, 2-{3-{1-(2-aminopyridine-4-carbonyl)azetidin-3-yl]-4,6-difluoro-1H-indazol-1-yl]-1-(3,4-dihydro-2H-1,4-benzoxazin-4-yl)ethan-1-one], the 50% inhibitory concentration (IC50) was 1.2 nM.

Regarding `CC1(C)CCCN1C(=O)Cn1nc(C2CN(C(=O)c3ccnc(N)c3)C2)c2c(F)cc(F)cc21` [Compound E-127, 2-{3-[1-(2-aminopyridine-4-carbonyl)azetidin-3-yl]-4,6-difluoro-1H-indazol-1-yl}-1-(2,2-dimethylpyrrolidin-1-yl)ethan-1-one], the IC50 is 11 nM.

`Nc1cc(C(=O)N2CC(c3nn(CC(=O)N4CCO[C@@H](C(F)(F)F)C4)c4ccccc34)C2)ccn1` [Compound E-193, 2-{3-[1-(2-aminopyridine-4-carbonyl)azetidin-3-yl]-1H-indazol-1-yl}-1-[(2R)-2-(trifluoromethyl)morpholin-4-yl]ethan-1-one]: the concentration for half-maximal inhibition (IC50) turned out to be 1.5 nM.

For the compound `Nc1cc(C(=O)N2CC(c3nn(CC(=O)N4CCC[C@H]4C(F)(F)F)c4cccnc34)C2)ccn1` [Compound E-120], the IC50 turned out to be 60 nM.

For the compound `CN(CC1CC(F)(F)C1)C(=O)Cn1nc(C2CN(C(=O)c3cc(N)ncc3F)C2)c2ccccc21` [Compound E-256, 2-{3-[1-(2-amino-5-fluoropyridine-4-carbonyl)azetidin-3-yl]-1H-indazol-1-yl]-N-[(3,3-difluorocyclobutyl)methyl]-N-methylacetamide], the IC50 was 2 nM.

On to `O=C(Cn1nc(C2CN(C(=O)c3ccnc(NC4COC4)c3)C2)c2c(F)cc(F)cc21)NCC(F)(F)F` [Compound E-32, 2-[4,6-difluoro-3-(1-{2-[(oxetan-3-yl)amino]pyridine-4-carbonyl}azetidin-3-yl)-1H-indazol-1-yl]-N-(2,2,2-trifluoroethyl)acetamide], for which the IC50 amounted to 160 nM.

For `CN(CC(F)(F)F)C(=O)Cn1nc(C2CN(C(=O)c3ccnc(N)n3)C2)c2cc(F)c(F)cc21` [Compound E-282, 2-{3-[1-(2-aminopyrimidine-4-carbonyl)azetidin-3-yl]-5,6-difluoro-1H-indazol-1-yl}-N-methyl-N-(2,2,2-trifluoroethyl)acetamide], the IC50 worked out at 52 nM.

For the compound `Nc1nccc(C(=O)N2CC(c3nn(CC(=O)N4CCO[C@@H](C(F)(F)F)C4)c4ccccc34)C2)n1` [Compound E-215, 2-{3-[1-(2-aminopyrimidine-4-carbonyl)azetidin-3-yl]-1H-indazol-1-yl}-1-[(2R)-2-(trifluoromethyl)morpholin-4-yl]ethan-1-one], the half-inhibitory concentration (IC50) is 56 nM.

Take `Cc1ccc2c(c1)c(C1CN(C(=O)c3cc(N)ncc3F)C1)nn2CC(=O)N1CCC[C@H]1C(F)(F)F` [Compound E-201, 2-{3-[1-(2-amino-5-fluoropyridine-4-carbonyl)azetidin-3-yl]-5-methyl-1H-indazol-1-yl}-1-[(28)-2-(trifluoromethyl)pyrrolidin-1-yl]ethan-1-one]: the 50% inhibitory concentration (IC50) was determined as 1.7 nM.

With `Nc1cc(C(=O)N2CC(c3nn(CC(=O)N4CCC[C@H]4C(F)(F)F)c4ccc(Cl)cc34)C2)ccn1` [Compound E-207, 2-{3-[1-(2-aminopyridine-4-carbonyl)azetidin-3-yl]-6-chloro-1H-indazol-1-yl}-1-[(28)-2-(trifluoromethyl)pyrrolidin-1-yl]ethan-1-one], the half-inhibitory concentration (IC50) came out at 1.6 nM.

Take `Nc1cc(C(=O)N2CC(O)(c3nn(CC(=O)N4CCC[C@H]4C(F)(F)F)c4ccccc34)C2)c(F)cn1` [Compound E-281, 2-{3-[1-(2-amino-5-fluoropyridine-4-carbonyl)-3-hydroxyazetidin-3-yl]-1H-indazol-1-yl}-1-[(28)-2-(trifluoromethyl)pyrrolidin-1-yl]ethan-1-one]: the IC50 was 11 nM.

As for `CC(C)(C)NC(=O)Cn1nc(C2CN(C(=O)c3ccnc(N)c3)C2)c2ccccc21` [Compound E-198, 2-{3-[1-(2-aminopyridine-4-carbonyl)azetidin-3-yl]-1H-indazol-1-yl}-N-tert-butylacetamide], the half-maximal inhibitory concentration (IC50) amounted to 31 nM.

As for `CO[C@@H]1CCN(C(=O)Cn2nc(C3CN(C(=O)c4cc(N)ncc4F)C3)c3ccccc32)C1` [Compound E-231, 2-{3-[1-(2-amino-5-fluoropyridine-4-carbonyl)azetidin-3-yl]-1H-indazol-1-yl}-1-1(3R)-3-methoxypyrrolidin-1-yllethan-1-one], the 50% inhibitory concentration (IC50) turned out to be 30 nM.

As to `Cc1c(C(=O)N2CC(c3nn(CC(=O)N4CCC[C@H]4C(F)(F)F)c4ccnc(C)c34)C2)ccnc1N` [Compound E-94], the half-maximal inhibitory concentration (IC50) was determined as 150 nM.

As to `CC1(c2nn(CC(=O)N3CCC[C@H]3C(F)(F)F)c3ccccc23)CN(C(=O)c2cc(N)ncc2F)C1` [Compound E-271, 2-{3-[1-(2-amino-5-fluoropyridine-4-carbonyl)-3-methylazetidin-3-yl]-1H-indazol-1-yl}-1-[(2S)-2-(trifluoromethyl)pyrrolidin-1-yl]ethan-1-one], the IC50 is 4 nM.

Take `Cc1cc2c(C3CN(C(=O)c4ccnc(N)c4C)C3)nn(CC(=O)N3CCO[C@@H](C(F)(F)F)C3)c2cn1` [Compound E-178, 2-{3-[1-(2-amino-3-methylpyridine-4-carbonyl)azetidin-3-yl]-5-methyl-1H-pyrazolol3,4-clpyridin-1-yl}-1-[(2R)-2-(trifluoromethyl)morpholin-4-yl]ethan-1-one dihydrochloride]: the IC50 is 54 nM.

Regarding `Nc1cc(C(=O)N2CC(c3nn(Cc4noc(-c5ccccc5F)n4)c4cccc(F)c34)C2)ccn1` [Compound E-148, 4-[3-(4-fluoro-1-i[5-(2-fluorophenyl)-1,2,4-oxadiazol-3-yl]methyl}-1H-indazol-3-yl)azetidine-1-carbonyllpyridin-2-amine], the 50% inhibitory concentration (IC50) was found to be 1.9 nM.

As for `Nc1cc(C(=O)N2CC(c3nn(CC(=O)N4CCC[C@H]4COC(F)(F)F)c4cc(F)cc(F)c34)C2)c(F)cn1` [Compound E-175, 2-{3-[1-(2-amino-5-fluoropyridine-4-carbonyl)azetidin-3-yl]-4,6-difluoro-1H-indazol-1-yl}-1-[(2S)-2-[(trifluoromethoxy)methyl]pyrrolidin-1-yl]ethan-1-one], the IC50 was determined as 0.5 nM.

On to `CC1(c2nn(CC(=O)N3CCC[C@H]3C(F)(F)F)c3ccccc23)CN(C(=O)c2ccnc(N)c2)C1` [Compound E-6, 2-{3-[1-(2-aminopyridine-4-carbonyl)-3-methylazetidin-3-yl]-1H-indazol-1-yl}-1-[(2S)-2-(trifluoromethyl)pyrrolidin-1-yl]ethan-1-one], for which the 50% inhibitory concentration (IC50) is 7.1 nM.

As for `O=C(c1ccc2[nH]ncc2n1)N1CC(c2nn(CC(=O)N3CCC[C@H]3C(F)(F)F)c3cc(F)cc(F)c23)C1` [Compound E-141], the half-maximal inhibitory concentration (IC50) came to 5 nM.

For `Nc1cc(C(=O)N2CC(c3nn(CC4Cc5ccccc5C4)c4cc(F)cc(F)c34)C2)ccn1` [Compound E-171, 4-(3-{1-[(2,3-dihydro-1H-inden-2-yl)methyl]-4,6-difluoro-1H-indazol-3-yl}azetidine-1-carbonyl)pyridin-2-amine], the concentration for half-maximal inhibition (IC50) is 34 nM.

As to `Nc1cc(C(=O)N2CC(c3nn(Cc4ccccc4C(F)(F)F)c4cccc(F)c34)C2)ccn1` [Compound E-114, 4-[3-(4-fluoro-1-{[2-(trifluoromethyl)phenyllmethyl}-1H-indazol-3-yl)azetidine-1-carbonyl]pyridin-2-amine hydrochloride], the IC50 came to 56 nM.

For `CN(CCN1CCOCC1)C(=O)Cn1nc(C2CN(C(=O)c3cc(N)ncc3F)C2)c2ccccc21` [Compound E-264], the IC50 came out at 170 nM.

As for `CC1(C)COCCN1C(=O)Cn1nc(C2CN(C(=O)c3cc(N)ncc3F)C2)c2c(F)cc(F)cc21` [Compound E-177, 2-{3-[1-(2-amino-5-fluoropyridine-4-carbonyl)azetidin-3-yl)-4,6-difluoro-1H-indazol-1-yl}-1-(3,3-dimethylmorpholin-4-yl)ethan-1-one], the IC50 is 2.1 nM.

On to `Nc1cc(C(=O)N2CC(c3nn(CC(=O)N4CCC5(COC5)C4)c4ccccc34)C2)c(F)cn1` [Compound E-232, 2-{3-[1-(2-amino-5-fluoropyridine-4-carbonyl)azetidin-3-yl]-1H-indazol-1-yl}-1-{2-oxa-6-azaspiro[3.4]octan-6-yl}ethan-1-one], for which the IC50 worked out at 38 nM.

Turning to `COc1cnccc1C(=O)N1CC(c2nn(CC(=O)N3CCC[C@H]3C(F)(F)F)c3cc(F)cc(F)c23)C1` [Compound E-133, 2-{4,6-difluoro-3-[1-(3-methoxypyridine-4-carbonyl)azetidin-3-yl)-1H-indazol-1-yl}-1-[(28)-2-(trifluoromethyl)pyrrolidin-1-yl]ethan-1-one], the IC50 turned out to be 23 nM.
